Like-named read-outs stand apart in the source and are kept apart here.
How the values were obtained:
[1] = test system: HCT-116 colorectal carcinoma cells; test: In vitro antiproliferative activity, MTS proliferation assay; assay type: cell-based; settings: Homo sapiens, 72 h
Excerpt: (§1) Human cancer cell lines used in this manuscript, namely Capan-1, HCT-116, NCI-H460, LN-229, HL-60, K-562, Z-138, SW620, PC3 and HeLa, were acquired from the American Type Culture Collection (ATCC, Manassas, VA, USA), while the DND-41 cell line was purchased from the Deutsche Sammlung von Mikroorganismen und Zellkulturen (DSMZ Leibniz-Institut, Germany). Culture media were purchased from Gibco Life Technologies, USA, and supplemented with 10% fetal bovine serum (HyClone, GE Healthcare Life Sciences, Chicago, IL, USA), except for the media for SW620, PC3 and HeLa cells, which were purchased from Sigma.
(§2) Adherent cell lines LN-229, HCT-116, NCI-H460 and Capan-1 cells were seeded at a density between 500 and 1500 cells per well in 384-well tissue culture plates (Greiner). […]. Cells were incubated for 72 h with compounds and were then analyzed using the CellTiter 96® AQueous One Solution Cell Proliferation Assay (MTS) reagent (Promega) according to the manufacturer’s instructions. Absorbance of the samples was measured at 490 nm using a SpectraMax Plus 384 (Molecular Devices), and OD values were used to calculate the 50% inhibitory concentration (IC50). Compounds were tested in two independent experiments. SW620, PC3 and HeLa cells were seeded in 96-well microtiter plates at 1 × 10^4 to 3 × 10^4 cells/mL, depending on the doubling times of the specific cell line. Test agents were then added in five 10-fold dilutions (10^−8 to 10^−4 M). Working dilutions were freshly prepared on the day of testing. After 72 h of incubation, the cell growth rate was evaluated using the MTT assay as described previously. Absorbance of the samples was measured at 570 nm, and OD values were used to calculate the 50% inhibitory concentration (IC50). Each test was performed in quadruplicate in at least two individual experiments.

[2] = test system: K-562 chronic myeloid leukemia cells; test: as above; assay type: cell-based; settings: Homo sapiens, K562, 72 h
Excerpt: as §1, §2

[3] = test system: LN-229 glioblastoma cells; test: as above; assay type: cell-based; settings: Homo sapiens, 72 h
Excerpt: as §1, §2

[4] = test system: NCI-H460 lung carcinoma cells; test: as above; assay type: cell-based; settings: Homo sapiens, 72 h
Excerpt: as §1, §2

[5] = test system: Capan-1 pancreatic adenocarcinoma cells; test: as above; assay type: cell-based; settings: Homo sapiens, 72 h
Procedure: (§3) Culture media were purchased from Gibco Life Technologies, USA, and supplemented with 10% fetal bovine serum (HyClone, GE Healthcare Life Sciences, Chicago, IL, USA), except for the media for SW620, PC3 and HeLa cells, which were purchased from Sigma.
(§4) Cells were incubated for 72 h with compounds and were then analyzed using the CellTiter 96® AQueous One Solution Cell Proliferation Assay (MTS) reagent (Promega) according to the manufacturer’s instructions. […] Compounds were tested in two independent experiments. SW620, PC3 and HeLa cells were seeded in 96-well microtiter plates at 1 × 10^4 to 3 × 10^4 cells/mL, depending on the doubling times of the specific cell line. Test agents were then added in five 10-fold dilutions (10^−8 to 10^−4 M). Working dilutions were freshly prepared on the day of testing. After 72 h of incubation, the cell growth rate was evaluated using the MTT assay as described previously. […] Each test was performed in quadruplicate in at least two individual experiments.

[6] = test system: DND-41 acute lymphoblastic leukemia cells; test: as above; assay type: cell-based; settings: Homo sapiens, DND41, 72 h
Procedure: as §3, §4

[7] = test system: HL-60 acute myeloid leukemia cells; test: as above; assay type: cell-based; settings: Homo sapiens, 72 h
Procedure: as §3, §4

[8] = test system: Z-138 non-Hodgkin lymphoma cells; test: as above; assay type: cell-based, human
Excerpt: as §1, §2

[9] = test system: HeLa cervical carcinoma cells; test: In vitro antiproliferative activity, MTT assay; assay type: cell-based; settings: Homo sapiens, 72 h
Excerpt: as §1, §2

[10] = test system: PC3 prostate carcinoma cells; test: In vitro antiproliferative activity, MTT assay; assay type: cell-based; settings: Homo sapiens, 72 h
Excerpt: as §1, §2

[11] = test system: SW620 colon carcinoma cells; test: In vitro antiproliferative activity, MTT assay; assay type: cell-based; settings: Homo sapiens, SW-620, 72 h
Excerpt: as §1, §2

E. coli ATCC 25922 = test: Antibacterial activity in vitro, broth microdilution; assay type: cell-based; settings: Escherichia coli, ATCC25922; broth microdilution (CLSI), 16–24 h at 37 °C
Procedure: (§5) Synthesized compounds were prepared as 10 mM DMSO solutions and tested in a final concentration range of 100–0.2 µM [34].
(§6) Broth microdilution testing was performed according to CLSI (Clinical Laboratory Standards Institute) guidelines. MIC (minimal inhibitory concentration) values were defined as the last tested concentration of the compound at which there was no visible growth of bacteria. Inoculums for each microorganism were prepared using the direct colony suspension method, where broth solutions that achieved turbidity equivalent to 0.5 McFarland standard were additionally diluted 100× with Ca-adjusted MH media (Becton Dickinson).

S. Pneumoniae ATCC 49619 = test: as above; assay type: cell-based; settings: Streptococcus pneumoniae, ATCC49619; broth microdilution (CLSI), 16–24 h at 37 °C
Procedure: as §5, §6

S. aureus ATCC 29213 = test: as above; assay type: cell-based; settings: Staphylococcus aureus, ATCC29213; broth microdilution (CLSI), 16–24 h at 37 °C
Procedure: as §5, §6

E. coli Efflux Del = test: microbe, parasite or virus in culture; assay type: cell-based; settings: Escherichia coli, read-out: MIC E. coli Efflux Del
Procedure: as §5, §6

in vitro [12] = settings: dog
in vitro [13] = test: in vitro
HCoV 229E = test: Antiviral CPE reduction assay; assay type: cell-based; settings: Human coronavirus 229E, HEL 299 cells
HCoV OC43 = test: Antiviral CPE reduction assay; assay type: cell-based, human coronavirus OC43; settings: Betacoronavirus 1, OC43, HEL 299 cells
HCoV NL63 = test: Antiviral CPE reduction assay; assay type: cell-based; settings: Human coronavirus NL63, Huh-7, Huh7 cells
[14] = test system: Influenza H1N1 (A/Ned/378/05); test: Antiviral CPE reduction assay; assay type: cell-based; settings: Influenza A virus, MDCK cells
[15] = test system: Influenza H3N2 (A/HK/7/87); test: Antiviral CPE reduction assay; assay type: cell-based; settings: Influenza A virus, MDCK cells
[16] = test system: Influenza B (B/Ned/537/05); test: Antiviral CPE reduction assay; assay type: cell-based; settings: Influenza B virus, MDCK cells
RSV A Long = test: Antiviral CPE reduction assay; assay type: cell-based, respiratory syncytial virus A; settings: HEL 299 cells
HSV-1 KOS = test: Antiviral CPE reduction assay; assay type: cell-based, herpes simplex virus-1; settings: Human alphaherpesvirus 1
YFV 17D = test: microbe, parasite or virus in culture; assay type: cell-based; settings: Yellow fever virus, Huh-7, read-out: EC50 YFV 17D Huh7
Zika mr766 = test: Antiviral CPE reduction assay; assay type: cell-based; settings: Zika virus, Huh-7, Huh7 cells
Sindbis = test: Antiviral CPE reduction assay; assay type: cell-based; settings: Sindbis virus, Huh-7, Huh7 cells
in vitro [17] = settings: human
in vitro [18] = settings: human; remark: listed apart in the source
[19] = test system: panel of cancer cell lines (LN-229, Capan-1, HCT-116, NCI-H460, DND-41, HL-60, K-562, Z-138); test: In vitro antiproliferative activity, whole panel of Table 1 (MTS); assay type: cell-based; settings: Homo sapiens, range over eight cell lines, 72 h, read-out: IC50 values ranging over the panel of cancer cell lines of Table 1
Excerpt: as §1
Adherent cell lines LN-229, HCT-116, NCI-H460 and Capan-1 cells were seeded at a density between 500 and 1500 cells per well in 384-well tissue culture plates (Greiner). […]. Cells were incubated for 72 h with compounds and were then analyzed using the CellTiter 96® AQueous One Solution Cell Proliferation Assay (MTS) reagent (Promega) according to the manufacturer’s instructions. Absorbance of the samples was measured at 490 nm using a SpectraMax Plus 384 (Molecular Devices), and OD values were used to calculate the 50% inhibitory concentration (IC50). Compounds were tested in two independent experiments. […] After 72 h of incubation, the cell growth rate was evaluated using the MTT assay as described previously. […]

| Structure (SMILES) | IC50 [1] [µM] | IC50 [2] [µM] | IC50 [3] [µM] | IC50 [4] [µM] | IC50 [5] [µM] | IC50 [6] [µM] | IC50 [7] [µM] | IC50 ([8]; Homo sapiens, Z-138, 72 h) [µM] | IC50 [9] [µM] | IC50 [10] [µM] | IC50 [11] [µM] | MIC (E. coli ATCC 25922) [µM] | MIC (S. Pneumoniae ATCC 49619) [µM] | MIC (S. aureus ATCC 29213) [µM] | MIC (E. coli Efflux Del) [µM] | melting point [°C] | CC50 (in vitro [12]) [µM] | CC50 (in vitro [13]) [µM] | CC50 (in vitro [17]) [µM] | CC50 (in vitro [18]) [µM] | also measured |
| --- | --- | --- | --- | --- | --- | --- | --- | --- | --- | --- | --- | --- | --- | --- | --- | --- | --- | --- | --- | --- | --- |
| c1ccc(-c2nc3ncccc3[nH]2)cc1 [Compound 5, 2-Phenyl-1H-imidazo[4:5-b]pyridine] | > 100 | > 100 | > 100 | > 100 | 98 ± 2.9 | > 100 | 81.7 ± 26 | > 100 | 13.6 ± 3.4 | > 100 | > 100 | > 64 | > 64 | > 64 | > 64 | 290 to 291 | 79.2 ± 29.4 | > 30 | – | – | – |
| Brc1cnc2nc(-c3ccc(C4=NCCCN4)cc3)[nH]c2c1.Cl [Compound 15, 6-Bromo-2-(4-(1,4,5,6-tetrahydropyrimidin-2-yl)phenyl)-1H-imidazo[4,5-b]pyridine Hydrochloride] | > 100 | > 100 | 73.5 ± 0.8 | > 100 | > 100 | 17 ± 1.3 | > 100 | 29.1 ± 16.5 | 7.3 ± 0.4 | 8.6 ± 0.7 | 3.5 ± 0.2 | > 64 | > 64 | > 64 | > 64 | > 300 | > 100 | > 30 | – | – | – |
| Cn1c(-c2ccc(C#N)cc2)nc2cccnc21 [Compound 17, 4-(3-Methyl-3H-imidazo[4,5-b]pyridin-2-yl)benzonitrile] | > 100 | > 100 | > 100 | > 100 | > 100 | > 100 | > 100 | > 100 | > 100 | > 100 | > 100 | > 64 | > 64 | > 64 | > 64 | 183 to 185 | > 100 | – | > 100 | > 100 | EC50 (HCoV 229E): > 100 µM; EC50 (HCoV OC43): > 100 µM; EC50 (HCoV NL63): > 100 µM; EC50 [14]: > 100 µM; EC50 [15]: > 100 µM; EC50 [16]: > 100 µM; EC50 (RSV A Long; CPE reduction): 79 ± 29.7 µM; EC50 (RSV A Long; human respiratory syncytial virus, HEL 299, CPE reduction): 58 µM; EC50 (HSV-1 KOS): > 100 µM; EC50 (YFV 17D): > 100 µM; EC50 (Zika mr766): > 100 µM; EC50 (Sindbis): > 100 µM |
| Brc1cnc2nc(-c3ccc(C4=NCCN4)cc3)[nH]c2c1.Cl [Compound 14, 6-Bromo-2-(4-(4,5-dihydro-1H-imidazol-2-yl)phenyl)-1H-imidazo[4,5-b]pyridine Hydrochloride] | 13.6 ± 2.8 | 49.7 ± 3.1 | 8 ± 1.8 | 13 ± 7.6 | 9.4 ± 0.4 | 10.8 ± 0.4 | 9.5 ± 1.3 | 8.4 | 4.3 ± 2.6 | 1.5 ± 0.5 | 0.7 ± 0.3 | > 64 | > 64 | > 64 | 32 | > 300 | 33.9 ± 0.1 | – | – | – | IC50 ([8]; 72 h): 8.5 ± 2 µM; IC50 [19]: 8 to 49.7 µM |
| Cl.c1cnc2nc(-c3ccc(C4=NCCN4)cc3)[nH]c2c1 [Compound 11, 2-(4-(4,5-Dihydro-1H-imidazol-2-yl)phenyl)-1H-imidazo[4,5-b]pyridine Hydrochloride] | > 100 | > 100 | 81.7 ± 17.4 | 84.9 ± 21.4 | 74.5 ± 36.1 | 48.8 ± 12.5 | > 100 | 76.4 ± 33.4 | 11.1 ± 3.5 | ≥ 100 | 12.1 ± 3.7 | > 64 | > 64 | > 64 | > 64 | > 300 | > 100 | > 30 | – | – | – |
| CC(C)NC(=N)c1ccc(-c2nc3ncccc3[nH]2)cc1.Cl [Compound 13, 4-(1H-Imidazo[4,5-b]pyridin-2-yl)-N-isopropylbenzimidamide Hydrochloride] | > 100 | > 100 | > 100 | > 100 | > 100 | > 100 | > 100 | > 100 | > 100 | > 100 | > 100 | > 64 | > 64 | > 64 | > 64 | 293 to 295 | > 100 | > 30 | 81.1 ± 26.8 | > 100 | – |
| Cl.N=C(N)c1ccc(-c2nc3ncc(Br)cc3[nH]2)cc1 [Compound 10, 4-(6-Bromo-1H-imidazo[4,5-b]pyridin-2-yl)benzimidamide Hydrochloride] | > 100 | > 100 | > 100 | > 100 | > 100 | > 100 | > 100 | > 100 | 1.3 ± 0.26 | ≥ 100 | 0.4 ± 0.1 | > 64 | > 64 | > 64 | > 64 | > 300 | > 100 | – | > 100 | > 100 | EC50 (HCoV 229E): > 100 µM; EC50 (HCoV OC43): > 100 µM; EC50 (HCoV NL63): > 100 µM; EC50 [14]: 71.4 ± 24.3 µM; EC50 [15]: 79.2 ± 14.7 µM; EC50 [16]: 94 ± 5.2 µM; EC50 (RSV A Long; human respiratory syncytial virus, CPE reduction): 86.9 ± 18.6 µM; EC50 (HSV-1 KOS): > 100 µM; EC50 (YFV 17D): > 100 µM; EC50 (Zika mr766): > 100 µM; EC50 (Sindbis): > 100 µM |

— article PMC9822021, “Biological Activity of Amidino-Substituted Imidazo [4,5-b]pyridines” (Molecules, 2022)
